These results are taken from ChEMBL document CHEMBL3991601, “The target landscape of clinical kinase drugs” (Science, 2017).

Active and inactive are the calls of the source. For most assays here, no stated cut-off is given here; in the data, actives have a measured Kd and inactives only a lower limit. Bounds are passed on as bounds.

The target in test [1] is Mitogen-activated protein kinase kinase kinase 1 (Homo sapiens, UniProt Q13233).
Test [2] deals with T1, Exosome RNA helicase MTR4 (Homo sapiens, UniProt P42285).
T1 sequence (P42285 whole entry): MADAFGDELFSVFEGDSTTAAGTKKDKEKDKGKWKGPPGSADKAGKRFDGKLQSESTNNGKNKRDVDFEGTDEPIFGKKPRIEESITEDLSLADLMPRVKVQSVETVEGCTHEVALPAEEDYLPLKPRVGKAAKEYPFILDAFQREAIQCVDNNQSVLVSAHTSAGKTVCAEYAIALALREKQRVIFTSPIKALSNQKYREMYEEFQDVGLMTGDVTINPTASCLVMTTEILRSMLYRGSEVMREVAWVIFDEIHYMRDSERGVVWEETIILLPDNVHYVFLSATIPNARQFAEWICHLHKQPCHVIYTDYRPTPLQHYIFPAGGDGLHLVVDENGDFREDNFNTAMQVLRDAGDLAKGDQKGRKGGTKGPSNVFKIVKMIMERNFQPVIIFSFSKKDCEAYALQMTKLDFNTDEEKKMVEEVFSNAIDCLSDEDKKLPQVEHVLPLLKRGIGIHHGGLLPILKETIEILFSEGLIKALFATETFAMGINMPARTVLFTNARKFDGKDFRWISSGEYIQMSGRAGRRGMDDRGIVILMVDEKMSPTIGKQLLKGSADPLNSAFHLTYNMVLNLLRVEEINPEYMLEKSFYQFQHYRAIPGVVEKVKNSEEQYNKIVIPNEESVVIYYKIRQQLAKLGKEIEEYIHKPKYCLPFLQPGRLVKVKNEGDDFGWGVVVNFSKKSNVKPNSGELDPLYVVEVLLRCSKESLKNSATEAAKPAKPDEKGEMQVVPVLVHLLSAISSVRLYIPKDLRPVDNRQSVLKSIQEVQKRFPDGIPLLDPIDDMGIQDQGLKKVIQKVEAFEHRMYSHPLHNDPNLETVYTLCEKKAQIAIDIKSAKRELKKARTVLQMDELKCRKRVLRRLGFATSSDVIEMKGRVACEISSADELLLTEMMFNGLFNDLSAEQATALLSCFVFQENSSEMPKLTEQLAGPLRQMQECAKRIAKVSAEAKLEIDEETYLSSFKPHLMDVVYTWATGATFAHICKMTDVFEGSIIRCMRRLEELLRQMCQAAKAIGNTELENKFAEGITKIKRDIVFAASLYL

Test [3] addresses Calcium/calmodulin-dependent protein kinase type II subunit delta (Homo sapiens, UniProt Q13557).
Test [4] deals with Cyclin-dependent kinase 5 (Homo sapiens, UniProt Q00535).
Cyclin-dependent kinase 5, sequence (Q00535 whole entry): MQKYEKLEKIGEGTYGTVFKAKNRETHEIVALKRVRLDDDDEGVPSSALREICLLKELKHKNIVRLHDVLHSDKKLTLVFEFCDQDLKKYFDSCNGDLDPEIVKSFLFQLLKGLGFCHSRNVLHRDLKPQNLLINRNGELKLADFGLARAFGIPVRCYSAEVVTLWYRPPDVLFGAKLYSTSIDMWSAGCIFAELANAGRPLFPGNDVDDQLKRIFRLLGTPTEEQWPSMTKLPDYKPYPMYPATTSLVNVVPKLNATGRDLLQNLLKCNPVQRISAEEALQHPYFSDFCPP
For test [5], the target named is STE20-like serine/threonine-protein kinase (Homo sapiens, UniProt Q9H2G2).
STE20-like serine/threonine-protein kinase, sequence (Q9H2G2 whole entry): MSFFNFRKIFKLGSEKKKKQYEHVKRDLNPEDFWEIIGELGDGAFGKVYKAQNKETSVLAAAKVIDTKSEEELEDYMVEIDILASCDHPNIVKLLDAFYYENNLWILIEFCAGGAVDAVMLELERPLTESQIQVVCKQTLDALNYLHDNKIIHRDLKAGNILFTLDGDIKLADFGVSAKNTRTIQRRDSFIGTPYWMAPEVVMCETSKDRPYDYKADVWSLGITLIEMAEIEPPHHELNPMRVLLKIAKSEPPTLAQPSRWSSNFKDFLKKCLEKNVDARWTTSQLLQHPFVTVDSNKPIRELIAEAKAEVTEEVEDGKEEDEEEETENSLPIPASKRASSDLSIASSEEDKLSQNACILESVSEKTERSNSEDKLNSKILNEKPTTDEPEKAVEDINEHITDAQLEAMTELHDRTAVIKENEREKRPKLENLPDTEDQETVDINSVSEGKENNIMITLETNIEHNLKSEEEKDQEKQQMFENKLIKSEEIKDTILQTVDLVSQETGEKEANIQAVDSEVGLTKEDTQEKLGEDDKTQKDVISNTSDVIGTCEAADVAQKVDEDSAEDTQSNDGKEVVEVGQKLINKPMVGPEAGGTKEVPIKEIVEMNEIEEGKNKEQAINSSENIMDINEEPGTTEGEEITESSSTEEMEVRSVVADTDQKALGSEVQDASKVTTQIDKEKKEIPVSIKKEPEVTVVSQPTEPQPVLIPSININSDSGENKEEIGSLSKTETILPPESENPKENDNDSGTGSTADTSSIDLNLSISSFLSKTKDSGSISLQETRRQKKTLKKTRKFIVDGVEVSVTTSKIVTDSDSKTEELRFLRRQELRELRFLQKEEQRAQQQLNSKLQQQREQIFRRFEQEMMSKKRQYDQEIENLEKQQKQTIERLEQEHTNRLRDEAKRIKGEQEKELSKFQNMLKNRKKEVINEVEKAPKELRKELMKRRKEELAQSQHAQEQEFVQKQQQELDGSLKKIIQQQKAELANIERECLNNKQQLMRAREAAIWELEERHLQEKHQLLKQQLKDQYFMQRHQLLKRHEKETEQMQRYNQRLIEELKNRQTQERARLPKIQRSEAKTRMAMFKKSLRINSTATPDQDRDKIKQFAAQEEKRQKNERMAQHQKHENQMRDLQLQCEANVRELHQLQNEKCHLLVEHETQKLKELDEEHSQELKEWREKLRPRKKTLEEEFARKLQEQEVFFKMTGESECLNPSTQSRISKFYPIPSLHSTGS
Test [6] concerns the target BMP-2-inducible protein kinase (Homo sapiens, UniProt Q9NSY1).
Test [7] deals with NADH dehydrogenase [ubiquinone] 1 alpha subcomplex subunit 13 (Homo sapiens, UniProt Q9P0J0).
NADH dehydrogenase [ubiquinone] 1 alpha subcomplex subunit 13, sequence (Q9P0J0 whole entry, one chain of several): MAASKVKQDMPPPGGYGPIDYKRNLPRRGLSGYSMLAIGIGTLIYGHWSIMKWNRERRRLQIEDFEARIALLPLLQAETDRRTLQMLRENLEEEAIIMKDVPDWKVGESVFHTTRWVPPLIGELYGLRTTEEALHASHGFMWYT
For test [8], the target named is Myosin light chain kinase, smooth muscle (Homo sapiens, UniProt Q15746).
Test [9] has as its target Ephrin type-A receptor 5 (Homo sapiens, UniProt P54756).
Test [10] deals with Dual specificity mitogen-activated protein kinase kinase 2 (Homo sapiens, UniProt P36507).
Dual specificity mitogen-activated protein kinase kinase 2, sequence (P36507 whole entry): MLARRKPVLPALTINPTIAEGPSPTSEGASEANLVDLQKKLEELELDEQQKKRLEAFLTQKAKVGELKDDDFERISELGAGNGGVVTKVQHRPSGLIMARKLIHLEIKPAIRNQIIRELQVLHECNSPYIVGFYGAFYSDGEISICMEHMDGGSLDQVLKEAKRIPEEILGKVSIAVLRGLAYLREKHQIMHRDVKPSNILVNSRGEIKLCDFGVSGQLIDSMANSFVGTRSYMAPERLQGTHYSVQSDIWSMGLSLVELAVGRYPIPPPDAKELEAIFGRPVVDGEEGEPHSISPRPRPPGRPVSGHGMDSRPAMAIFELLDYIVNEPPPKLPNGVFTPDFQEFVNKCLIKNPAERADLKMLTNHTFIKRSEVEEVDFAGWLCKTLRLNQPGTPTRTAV
The target of test [11] is Insulin receptor (Homo sapiens, UniProt P06213).
Insulin receptor, sequence (P06213 28-758 limits assumed): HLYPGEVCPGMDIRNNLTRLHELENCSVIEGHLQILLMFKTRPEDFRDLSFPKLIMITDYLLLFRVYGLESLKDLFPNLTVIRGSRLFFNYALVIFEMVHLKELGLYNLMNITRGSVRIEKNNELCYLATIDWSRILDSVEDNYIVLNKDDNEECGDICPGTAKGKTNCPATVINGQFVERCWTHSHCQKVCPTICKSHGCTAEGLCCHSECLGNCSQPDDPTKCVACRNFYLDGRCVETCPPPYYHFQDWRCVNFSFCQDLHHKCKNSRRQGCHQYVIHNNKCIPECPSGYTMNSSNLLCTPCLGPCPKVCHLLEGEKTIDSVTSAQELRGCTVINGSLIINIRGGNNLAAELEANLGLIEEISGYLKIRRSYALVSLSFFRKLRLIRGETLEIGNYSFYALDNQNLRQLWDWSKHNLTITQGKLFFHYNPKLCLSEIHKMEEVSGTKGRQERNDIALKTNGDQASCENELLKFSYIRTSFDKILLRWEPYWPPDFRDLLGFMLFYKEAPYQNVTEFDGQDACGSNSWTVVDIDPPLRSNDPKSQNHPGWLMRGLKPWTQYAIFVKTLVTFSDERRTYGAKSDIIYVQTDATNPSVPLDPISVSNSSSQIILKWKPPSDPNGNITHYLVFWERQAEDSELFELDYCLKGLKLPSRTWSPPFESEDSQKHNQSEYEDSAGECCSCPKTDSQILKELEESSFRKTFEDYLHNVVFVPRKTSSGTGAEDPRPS
Insulin receptor, sequence (P06213 763-1382 limits assumed): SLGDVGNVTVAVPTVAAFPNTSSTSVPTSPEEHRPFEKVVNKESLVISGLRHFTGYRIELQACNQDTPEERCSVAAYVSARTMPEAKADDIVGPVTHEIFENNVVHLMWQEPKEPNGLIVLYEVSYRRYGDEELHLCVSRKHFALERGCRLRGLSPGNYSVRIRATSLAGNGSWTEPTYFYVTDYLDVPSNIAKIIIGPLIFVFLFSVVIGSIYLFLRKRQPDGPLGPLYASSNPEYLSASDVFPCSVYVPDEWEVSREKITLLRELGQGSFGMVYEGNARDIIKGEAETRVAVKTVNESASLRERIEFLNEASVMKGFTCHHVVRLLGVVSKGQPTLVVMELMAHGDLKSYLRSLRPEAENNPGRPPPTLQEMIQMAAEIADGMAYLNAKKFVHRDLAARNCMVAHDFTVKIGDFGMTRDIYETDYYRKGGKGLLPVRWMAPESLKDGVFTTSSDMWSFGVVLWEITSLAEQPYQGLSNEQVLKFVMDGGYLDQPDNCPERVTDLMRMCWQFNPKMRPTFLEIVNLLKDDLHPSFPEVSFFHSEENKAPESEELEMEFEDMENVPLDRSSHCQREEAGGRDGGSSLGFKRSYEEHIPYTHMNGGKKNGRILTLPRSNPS
The target in test [12] is RAC-alpha serine/threonine-protein kinase (Homo sapiens, UniProt P31749).
In test [13] the target is Tyrosine-protein kinase ABL1 (Homo sapiens, UniProt P00519).
In test [14] the target is RAC-gamma serine/threonine-protein kinase (Homo sapiens, UniProt Q9Y243).
RAC-gamma serine/threonine-protein kinase, sequence (Q9Y243 whole entry): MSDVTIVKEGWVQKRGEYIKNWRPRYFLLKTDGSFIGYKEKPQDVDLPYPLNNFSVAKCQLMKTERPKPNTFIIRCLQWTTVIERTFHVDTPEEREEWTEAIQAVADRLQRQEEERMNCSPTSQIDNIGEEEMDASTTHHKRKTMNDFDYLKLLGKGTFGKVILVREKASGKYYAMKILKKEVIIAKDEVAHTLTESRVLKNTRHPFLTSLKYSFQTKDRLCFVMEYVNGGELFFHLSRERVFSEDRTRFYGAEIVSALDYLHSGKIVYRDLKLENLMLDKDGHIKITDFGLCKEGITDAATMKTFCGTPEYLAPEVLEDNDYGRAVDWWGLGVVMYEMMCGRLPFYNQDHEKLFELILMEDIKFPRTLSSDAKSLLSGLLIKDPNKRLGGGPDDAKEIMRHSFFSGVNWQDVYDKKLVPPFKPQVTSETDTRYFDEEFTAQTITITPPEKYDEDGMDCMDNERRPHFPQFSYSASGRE

Ephrin type-A receptor 5, sequence (P54756 whole entry): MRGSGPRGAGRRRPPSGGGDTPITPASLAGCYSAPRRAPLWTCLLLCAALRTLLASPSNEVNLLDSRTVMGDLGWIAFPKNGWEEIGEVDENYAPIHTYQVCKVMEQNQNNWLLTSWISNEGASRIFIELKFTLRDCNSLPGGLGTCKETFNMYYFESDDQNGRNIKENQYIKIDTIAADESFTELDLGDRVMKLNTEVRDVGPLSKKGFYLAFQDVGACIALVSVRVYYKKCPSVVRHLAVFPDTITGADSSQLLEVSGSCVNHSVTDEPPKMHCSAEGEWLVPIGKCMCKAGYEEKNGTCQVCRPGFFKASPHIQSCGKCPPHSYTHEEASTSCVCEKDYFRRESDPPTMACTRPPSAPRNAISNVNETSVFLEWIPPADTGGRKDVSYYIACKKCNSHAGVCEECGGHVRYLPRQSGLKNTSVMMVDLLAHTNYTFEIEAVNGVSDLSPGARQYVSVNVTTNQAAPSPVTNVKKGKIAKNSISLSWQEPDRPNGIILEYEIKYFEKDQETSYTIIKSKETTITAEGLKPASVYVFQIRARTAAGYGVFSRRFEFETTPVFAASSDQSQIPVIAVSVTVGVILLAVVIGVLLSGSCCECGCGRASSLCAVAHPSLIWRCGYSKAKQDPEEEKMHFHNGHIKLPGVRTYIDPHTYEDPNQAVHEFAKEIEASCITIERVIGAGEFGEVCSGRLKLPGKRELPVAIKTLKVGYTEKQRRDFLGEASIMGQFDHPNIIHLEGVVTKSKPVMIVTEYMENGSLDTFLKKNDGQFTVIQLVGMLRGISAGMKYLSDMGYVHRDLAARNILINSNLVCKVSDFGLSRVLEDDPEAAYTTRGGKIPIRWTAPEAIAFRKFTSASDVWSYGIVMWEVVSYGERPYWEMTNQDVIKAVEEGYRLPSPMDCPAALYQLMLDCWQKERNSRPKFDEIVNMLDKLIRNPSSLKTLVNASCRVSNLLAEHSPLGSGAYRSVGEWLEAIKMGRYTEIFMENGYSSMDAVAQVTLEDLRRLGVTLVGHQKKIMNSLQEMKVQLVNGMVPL

As for `CC[C@@H]1C(=O)N(C)c2cnc(Nc3ccc(C(=O)N[C@H]4CC[C@H](N5CCN(CC6CC6)CC5)CC4)cc3OC)nc2N1C(C)C` [VOLASERTIB], the Kd in [1], in test [2], in test [3], in test [4], in test [5] and in test [6] was > 30 µM (inactive) throughout. Moreover, the Kd in test [7], in test [8], in [9], in test [10], in test [11] and in test [12] was > 30 µM (inactive) throughout. Besides, the Kd in test [13] and in test [14] was > 30 µM (inactive) in each case.

Take `Cc1ccc(S(=O)(=O)Nc2nc3ccccc3nc2Nc2ccc3nsnc3c2)cc1`: the Kd in [1], in test [2], in test [3], in [4], in test [5] and in [6] was > 30 µM (inactive) in each case. Further, the Kd in [7], in [8], in test [9], in [10], in test [11] and in test [12] was > 30 µM (inactive) throughout. Besides, the Kd in test [13] and in test [14] was > 30 µM (inactive) in each case.

Consider `Cn1cc(-c2ccc(F)c(C(F)(F)F)c2)nc1C1CCN(c2ncnc3[nH]ncc23)CC1` [LY-2584702], for which the Kd in [1], in test [2], in test [3], in test [4], in [5] and in test [6] was > 30 µM (inactive) in each case. Moreover, the Kd in test [7], in test [8], in [9], in test [10], in test [11] and in test [12] was > 30 µM (inactive) in each case. For the same compound, the Kd in test [13] and in test [14] was > 30 µM (inactive) throughout.

`COc1cc(OC)c(/C=C/S(=O)(=O)Cc2ccc(OC)c(NCC(=O)O)c2)c(OC)c1` [RIGOSERTIB]: the Kd in [1], in test [2], in test [3], in test [4], in test [5] and in test [6] was > 30 µM (inactive) each time. Also, the Kd in test [7], in test [8], in test [9], in test [10], in test [11] and in [12] was > 30 µM (inactive) each time. The Kd in test [13] and in test [14] was > 30 µM (inactive) throughout.

Consider `CCn1c(=O)c(-c2cc[nH]n2)cc2c(C)nc(N)nc21` [VOXTALISIB], for which the Kd in test [1], in test [2], in test [3], in test [4], in test [5] and in test [6] was > 30 µM (inactive) each time. The Kd in [7], in test [8], in test [9], in [10], in test [11] and in test [12] was > 30 µM (inactive) each time. In addition, the Kd in test [13] and in test [14] was > 30 µM (inactive) each time.

Consider `CNC(=O)c1ccc(-c2cnc3ncc(Cc4ccc5ncccc5c4)n3n2)cc1F` [CAPMATINIB], for which the Kd in test [1], in test [2], in [3], in [4], in [5] and in [6] was > 30 µM (inactive) each time. The Kd in test [8], in [9], in test [10], in test [11], in test [12] and in test [13] was > 30 µM (inactive) in each case. In [14], the Kd is > 30 µM (inactive).

`CCS(=O)(=O)N1CC(CC#N)(n2cc(-c3ncnc4[nH]ccc34)cn2)C1` [BARICITINIB]: the dissociation constant Kd is 1.89 µM (active) in test [1]; > 30 µM (inactive) in test [2]; 0.312 µM (active) in test [3]; > 30 µM (inactive) in [4]; > 30 µM (inactive) in [5]; > 30 µM (inactive) in [7]. Besides, the Kd in test [8], in test [9], in test [10], in [11], in test [12] and in [13] was > 30 µM (inactive) in each case. The Kd in [14] is > 30 µM (inactive).

For `C=CC(=O)N1CCC(Oc2cc3c(Nc4ccc(Cl)c(Cl)c4F)ncnc3cc2OC)CC1` [POZIOTINIB], the Kd in test [1], in test [2], in [3], in [4], in test [5] and in [6] was > 30 µM (inactive) throughout. Moreover, the Kd in test [8], in [9], in [10], in test [11], in test [12] and in test [13] was > 30 µM (inactive) each time. The Kd in test [14] is > 30 µM (inactive).

On to `COc1cc2nccc(Oc3ccc(NC(=O)Nc4cc(C)on4)c(Cl)c3)c2cc1OC` [TIVOZANIB], for which the Kd in test [1], in [2], in [3], in [4], in test [5] and in test [6] was > 30 µM (inactive) throughout. Moreover, the Kd in test [7] was > 30 µM (inactive); in test [8] it was > 30 µM (inactive); in [9], 0.601 µM (active); in test [10] it was > 30 µM (inactive); in [11] it was > 30 µM (inactive); in test [12] it was > 30 µM (inactive). Also, in test [14], the Kd was > 30 µM (inactive).

`N[C@@H]1CCCN(c2c(/C=C3\SC(=O)NC3=O)cccc2-c2ccccc2)C1`: the Kd in test [1], in test [2], in [3], in [4], in test [5] and in [6] was > 30 µM (inactive) each time. Also, the Kd in [7], in test [8], in test [10], in test [11], in [12] and in test [13] was > 30 µM (inactive) each time. In addition, the Kd in test [14] was > 30 µM (inactive).

One may read the Kd as the equilibrium constant for the complex coming apart.
